Measurements: patent US11083199B2, “Heterocycle derivatives as pesticides” (Bayer Aktiengesellschaft, priority 2017, dated 2021)

How the values were obtained:
Assay type in all cases: in vivo
Myzus persicae [1] = experiment: Myzus persicae spray test; settings: foliar, 120 h, application rate 100 g/ha, Chinese cabbage leaf discs, after 5 days, read-out: efficacy
Outline: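 Chinese cabbage leaf discs infested with all aphid stages sprayed with compound formulated in emulsifier-containing water (1000 ppm emulsifier). Efficacy (% aphids killed; 100% = all killed) determined after 5 days.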

Phaedon cochleariae = Phaedon cochleariae spray test; settings: 168 h, larvae, after 7 days, read-out: efficacy; for pest or weed control at 100 g/ha: application rate 100 g/ha
Outline: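 Chinese cabbage leaf discs sprayed with compound formulated in solvent and water containing 1000 ppm emulsifier. Once dry, discs were populated with mustard beetle larvae. Percent kill scored after 7 days, 100% meaning all larvae dead and 0% none.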

Spodoptera frugiperda = Spodoptera frugiperda spray test; settings: foliar, 168 h, application rate 100 g/ha, maize leaf discs, caterpillars, after 7 days, read-out: efficacy
Protocol: (§1) [table] To produce a suitable active ingredient formulation, 1 part by weight of active ingredient is dissolved with the specified parts by weight of solvent and made up to the desired concentration with water containing an emulsifier concentration of 1000 ppm. To produce further test concentrations, the formulation is diluted with emulsifier-containing water. Leaf discs of maize (Zea mays) are sprayed with an active ingredient formulation of the desired concentration and, after drying, populated with caterpillars of the fall armyworm (Spodoptera frugiperda). After 7 days, the efficacy in % is determined. 100% means that all the caterpillars have been killed; 0% means that no caterpillar has been killed.

Tetranychus urticae = Tetranychus urticae spray test, OP-resistant; settings: foliar, 144 h, bean leaf discs, after 6 days, read-out: efficacy; for pest or weed control at 100 g/ha: application rate 100 g/ha; for pest or weed control at 20 g/ha: application rate 20 g/ha
Protocol: as §1, with “Discs” for “Leaf discs”, “bean leaves (Phaseolus vulgaris) infested with all stages of the greenhouse red spider mite (Tetranychus urticae)” for “maize (Zea mays)”, “concentration.” for “concentration and, after drying, populated with caterpillars of the fall armyworm (Spodoptera frugiperda).”, “6” for “7”, “spider mites” for “caterpillars”, “spider mites have” for “caterpillar has”

Ctenocephalides felis [2] = experiment: Ctenocephalides felis oral test; settings: 48 h, application rate 100 ppm in citrated cattle blood, kill after 2 days, read-out: efficacy
Protocol: Solvent: dimethyl sulfoxide To produce a suitable active ingredient formulation, 10 mg of active ingredient are mixed with 0.5 ml of dimethyl sulfoxide. Dilution with citrated cattle blood gives the desired concentration. About 20 unfed adult cat fleas (Ctenocephalides felis) are placed into a chamber which is closed at the top and bottom with gauze. A metal cylinder whose bottom end is closed with parafilm is placed onto the chamber. The cylinder contains the blood/active ingredient formulation, which can be imbibed by the fleas through the parafilm membrane. After 2 days, the kill in % is determined. 100% means that all of the fleas have been killed; 0% means that none of the fleas have been killed.

Lucilia cuprina = Lucilia cuprina test; settings: 48 h, application rate 100 ppm, L1 larvae, kill after 2 days, read-out: efficacy
Protocol: Solvent: dimethyl sulfoxide To produce a suitable active ingredient formulation, 10 mg of active ingredient are mixed with 0.5 ml of dimethyl sulfoxide, and the concentrate is diluted with water to the desired concentration. About 20 L1 larvae of the Australian sheep blowfly (Lucilia cuprina) are transferred into a test vessel containing minced horsemeat and the active ingredient formulation of the desired concentration. After 2 days, the kill in % is determined. 100% means that all the larvae have been killed; 0% means that no larvae have been killed.

Myzus persicae [3] = experiment: Myzus persicae oral test; settings: 120 h, application rate 4 ppm, after 5 days, read-out: efficacy
Outline: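 Compound formulation diluted with IPL41 insect medium (33%+15% sugar) and sealed under parafilm; mixed-population aphids feed through the membrane from a second plate. Mortality scored after 5 days as % efficacy (100% = all aphids killed, 0% = none).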

Ctenocephalides felis [4] = experiment: Ctenocephalides felis in vitro contact test with adult cat fleas; settings: application rate 5 μg/cm^2 (=500 g/ha), adult cat fleas dead or moribund after 48 h, read-out: efficacy
Protocol: For the coating of the test tubes, 9 mg of active ingredient are first dissolved in 1 ml of acetone p.a. and then diluted to the desired concentration with acetone p.a. 250 μl of the solution are distributed homogeneously on the inner walls and the base of a 25 ml glass tube by turning and rocking on an orbital shaker (rocking rotation at 30 rpm for 2 h). With 900 ppm of active ingredient solution and internal surface area 44.7 cm^2, given homogeneous distribution, an area-based dose of 5 μg/cm^2 is achieved. After the solvent has evaporated off, the tubes are populated with 5-10 adult cat fleas (Ctenocephalides felis), sealed with a perforated plastic lid and incubated in a horizontal position at room temperature and ambient humidity. After 48 h, efficacy is determined. To this end, the tubes are stood upright and the fleas are knocked to the base of the tube. Fleas which remain motionless at the base or move in an uncoordinated manner are considered to be dead or moribund. […] 100% efficacy means that all the fleas were dead or moribund. 0% efficacy means that no fleas were harmed.

Musca domestica = Musca domestica test; settings: application rate 100 ppm; adult houseflies, kill after 2 days
Protocol: Solvent: dimethyl sulfoxide To produce a suitable active ingredient formulation, 10 mg of active ingredient are mixed with 0.5 ml of dimethyl sulfoxide, and the concentrate is diluted with water to the desired concentration. Vessels containing a sponge treated with sugar solution and the desired concentration of active ingredient formulation are populated with 10 adult houseflies (Musca domestica). After 2 days, the kill in % is determined. 100% means that all of the flies have been killed; 0% means that none of the flies have been killed.

Structure (SMILES) | pest or weed control at 100 g/ha (Myzus persicae [1]) | pest or weed control at 100 g/ha (Phaedon cochleariae) | pest or weed control at 100 g/ha (Spodoptera frugiperda) | pest or weed control at 100 g/ha (Tetranychus urticae) | pest or weed control at 100 ppm (Ctenocephalides felis [2]) | pest or weed control at 100 ppm (Lucilia cuprina) | pest or weed control at 4 ppm (Myzus persicae [3]) | pest or weed control at 5 µg/cm2, 500 g/ha (Ctenocephalides felis [4]) | pest or weed control at 500 g/ha (Phaedon cochleariae; application rate 500 g/ha) | efficacy (Musca domestica) | pest or weed control at 20 g/ha (Tetranychus urticae)
CCS(=O)(=O)c1c(-c2nc3cc(C(F)(F)F)ncc3n2C)nc(-c2ccc(C3(C#N)CC3)cc2C)n1C [Example I-076] | 100% | 100% | 100% | 90% | – | – | – | – | – | – | –
CCS(=O)(=O)c1c(-c2nc3cc(C(F)(F)F)ncc3n2C)nc(-c2cnn(C3CC3)c2)n1C [Example I-055] | 90% | 100% | – | 90% | 100% | 100% | 100% | – | – | – | –
CCS(=O)(=O)c1c(-c2nc3cc(C(F)(F)F)ncc3n2C)nc(-c2ccccc2)n1C [Example I-003] | 90% | – | – | – | 100% | 100% | 100% | 100% | – | – | –
CCS(=O)(=O)c1c(-c2nc3cc(C(F)(F)F)ncc3n2C)nc(-c2ccc(C3(C#N)CC3)c(F)c2)n1C [Example I-070] | 100% | 100% | 83% | 100% | – | – | 100% | – | – | – | –
CCn1c(Cl)nc(-c2nc3cc(C(F)(F)F)ncc3n2C)c1S(=O)(=O)CC [Example I-011] | 100% | 100% | 100% | – | 100% | 100% | 100% | 100% | – | – | –
CCS(=O)(=O)c1c(-c2nc3cc(C(F)(F)F)ncc3n2C)nc(-c2ccc(C(C)(C)C#N)cc2)n1C [Example I-066] | 70% | – | – | 90% | – | – | 100% | – | 83% | – | –
CCS(=O)(=O)c1c(-c2nc3cc(C(F)(F)F)ncc3n2C)nc(-c2cc(Cl)cs2)n1C [Example I-033] | 90% | – | 100% | – | 100% | 100% | 100% | – | – | 90% | –
CCS(=O)(=O)c1c(-c2nc3cc(C(F)(F)F)ncc3n2C)nc(-c2ccc(Cl)cn2)n1C [Example I-015] | 90% | 100% | 100% | – | 100% | 100% | 100% | 100% | – | – | –
CCS(=O)(=O)c1c(-c2nc3cc(C(F)(F)F)ncc3n2C)nc(-c2cc(Cl)cc(C3(C#N)CC3)c2)n1C [Example I-077] | 90% | 100% | – | 100% | – | – | – | – | – | – | 90%
CCS(=O)(=O)c1c(-c2nc3cc(C(F)(F)F)ncc3n2C)nc(-c2cccnc2F)n1C [Example I-020] | 100% | 100% | 83% | – | 100% | 100% | 100% | 100% | – | – | –
CCS(=O)(=O)c1c(-c2nc3cc(C(F)(F)F)ncc3n2C)nc(-c2ccncc2F)n1C [Example I-022] | 100% | 100% | – | – | 95% | 100% | 100% | 100% | – | – | –
CCS(=O)(=O)c1c(-c2nc3cc(C(F)(F)F)ncc3n2C)nc(-c2cccc(C3(C#N)CC3)c2)n1C [Example I-087] | – | 100% | 100% | – | – | – | 100% | – | – | – | 90%
CCS(=O)(=O)c1c(-n2cc3ccc(C(F)(F)F)cc3n2)nc(-c2ccc(Cl)cc2)n1C [Example I-092] | – | 67% | 100% | 100% | – | 100% | 100% | – | – | – | –
CCS(=O)(=O)c1c(-c2nc3cc(C(F)(F)F)ncc3n2C)nc(-c2cncnc2)n1C [Example I-023] | 100% | 100% | – | – | 100% | 100% | 100% | 100% | – | – | –
CCS(=O)(=O)c1c(-c2nc3cc(C(F)(F)F)ncc3n2C)nc(-c2c(C)nn(C)c2C)n1C [Example I-050] | 90% | – | – | 90% | – | – | 90% | – | – | – | –
CCS(=O)(=O)c1c(-c2nc3cc(C(F)(F)F)ncc3n2C)nc(-c2cnn(C)c2)n1C [Example I-042] | 90% | 100% | – | – | – | – | 100% | – | – | – | 90%
CCS(=O)(=O)c1c(-c2nc3cc(C(F)(F)F)ncc3n2C)nc(-c2ccc(C#N)c(Cl)c2)n1C [Example I-082] | 90% | 100% | 83% | 100% | – | – | 100% | – | – | – | 100%
CCS(=O)(=O)c1c(-c2nc3cc(C(F)(F)F)ncc3n2C)nc(-c2ccccn2)n1C [Example I-013] | 90% | 100% | – | – | 100% | 100% | 100% | 100% | – | – | –
CCS(=O)(=O)c1c(-c2nc3cc(C(F)(F)F)ncc3n2C)nc(/C=C/C2CC2)n1C [Example I-007, 2-{2-[(E)-2-Cyclopropylvinyl]-5-(ethylsulfonyl)-1-methyl-1H-imidazol-4-yl}-3-methyl-6-(trifluoromethyl)-3H-imidazo[4,5-c]pyridine] | 90% | 100% | 100% | – | 95% | 100% | 100% | 100% | – | – | –
